pIC50: −log10 of the molar value.
Legend:
HEK-293 cells = experiment: HEK-293 cytotoxicity detection (CellTiter-Glo); format: cell-based; conditions: Homo sapiens, 72 h, 72 h incubation, CellTiter-Glo luminescence, read-out: HEK293
Summary of the method: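 HEK-293 cells exposed 72 h to 8 compounds doses (4-fold dilutions, top stock 5 mM at 500×) in 0.2% DMSO. Viability by CellTiter-Glo luminescence; inhibition normalised to DMSO high control and low control, IC50 from four-parameter curve fit.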

BTK = BTK (Homo sapiens, UniProt Q06187); experiment: BTK cell degradation in TMD-8 cells, HTRF assay; format: cell-based; design: endogenous in cells; host or cells: TMD-8 cells; conditions: 6 h treatment, IC50 (DC50) of BTK degradation
BTK, sequence (Q06187 whole entry): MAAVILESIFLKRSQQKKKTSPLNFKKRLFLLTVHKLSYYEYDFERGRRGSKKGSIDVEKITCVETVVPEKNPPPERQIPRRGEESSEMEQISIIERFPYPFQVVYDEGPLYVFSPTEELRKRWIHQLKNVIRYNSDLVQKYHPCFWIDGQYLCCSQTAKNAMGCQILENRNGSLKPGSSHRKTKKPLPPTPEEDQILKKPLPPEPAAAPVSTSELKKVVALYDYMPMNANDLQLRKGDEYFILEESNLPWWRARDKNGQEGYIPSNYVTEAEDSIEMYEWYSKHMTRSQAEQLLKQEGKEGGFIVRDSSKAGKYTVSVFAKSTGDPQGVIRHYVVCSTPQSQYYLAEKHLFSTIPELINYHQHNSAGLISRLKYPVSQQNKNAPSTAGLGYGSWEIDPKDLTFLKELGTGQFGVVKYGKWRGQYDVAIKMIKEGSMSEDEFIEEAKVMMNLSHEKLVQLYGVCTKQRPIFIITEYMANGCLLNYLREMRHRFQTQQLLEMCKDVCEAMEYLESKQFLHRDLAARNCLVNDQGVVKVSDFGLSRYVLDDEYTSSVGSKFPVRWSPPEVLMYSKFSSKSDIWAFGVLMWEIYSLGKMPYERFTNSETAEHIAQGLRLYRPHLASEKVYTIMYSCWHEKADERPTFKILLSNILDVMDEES
Summary of the method: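 BTK levels read by HTRF in lysates of TMD-8 cells exposed to compounds for 6 h, eight concentrations at 6-fold steps in 0.2% DMSO. Percent degradation versus DMSO and low controls was fitted with a four-parameter equation to give DC50; Dmax is maximal degradation.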

Structure (SMILES): COc1cnccc1C(=O)NCc1ccc(-c2nn3c(c2C(N)=O)Nc2ccc(N4CCN(CC5CCN(c6ccc(N7CCC(=O)NC7=O)cc6)CC5)CC4)cc2CC3)cc1C [Example C37, 7-(4-((1-(4-(2,4-dioxotetrahydropyrimidin-1(2H)-yl)phenyl)piperidin-4-yl)methyl)piperazin-1-yl)-2-(4-((3-methoxyisonicotinamide)methyl)-3-methylphenyl)-9,10-dihydro-4H-benzo[d]pyrazolo[1,5-a][1,3]diazepine-3-carboxamide]
- pIC50 (HEK-293 cells): < 5.00
- DC50 (BTK): 12.4 nM

Structure (SMILES): COc1cccc(C)c1C(=O)NCc1ccc(-c2nn3c(c2C(N)=O)Nc2ccc(N4CCN(CC5CCN(c6ccc(N7CCC(=O)NC7=O)cc6)CC5)CC4)cc2CC3)cc1C [Example C38, 7-(4-((1-(4-(2,4-dioxotetrahydropyrimidin-1(2H)-yl)phenyl)piperidin-4-yl)methyl)piperazin-1-yl)-2-(4-((2-methoxy-6-methylbenzamido)methyl)-3-methylphenyl)-9,10-dihydro-4H-benzo[d]pyrazolo[1,5-a][1,3]diazepine-3-carboxamide]
- pIC50 (HEK-293 cells): < 5.00
- DC50 (BTK): 7.96 nM

Structure (SMILES): COc1ccc(C)cc1C(=O)NCc1ccc(-c2nn3c(c2C(N)=O)Nc2ccc(N4CCN(CC5CCN(c6ccc(N7CCC(=O)NC7=O)cc6)CC5)CC4)cc2CC3)cc1C [Example C39, 7-(4-((1-(4-(2,4-dioxotetrahydropyrimidin-1(2H)-yl)phenyl)piperidin-4-yl)methyl)piperazin-1-yl)-2-(4-((2-methoxy-5-methylbenzamido)methyl)-3-methylphenyl)-9,10-dihydro-4H-benzo[d]pyrazolo[1,5-a][1,3]diazepine-3-carboxamide]
- pIC50 (HEK-293 cells): < 5.00
- DC50 (BTK): 8.52 nM

Structure (SMILES): COc1c(F)cccc1C(=O)NCc1ccc(-c2nn3c(c2C(N)=O)Nc2ccc(N4CCN(CC5CCN(c6ccc(N7CCC(=O)NC7=O)cc6)CC5)CC4)cc2CC3)cc1C [Example C40, 7-(4-((1-(4-(2,4-dioxotetrahydropyrimidin-1(2H)-yl)phenyl)piperidin-4-yl)methyl)piperazin-1-yl)-2-(4-((3-fluoro-2-methoxybenzamido)methyl)-3-methylphenyl)-9,10-dihydro-4H-benzo[d]pyrazolo[1,5-a][1,3]diazepine-3-carboxamide]
- pIC50 (HEK-293 cells): < 5.00
- DC50 (BTK): 10.5 nM

Structure (SMILES): COc1cc(F)ccc1C(=O)NCc1ccc(-c2nn3c(c2C(N)=O)Nc2ccc(N4CCN(CC5CCN(c6ccc(N7CCC(=O)NC7=O)cc6)CC5)CC4)cc2CC3)cc1C [Example C41, 7-(4-((1-(4-(2,4-dioxotetrahydropyrimidin-1(2H)-yl)phenyl)piperidin-4-yl)methyl)piperazin-1-yl)-2-(4-((4-fluoro-2-methoxybenzamido)methyl)-3-methylphenyl)-9,10-dihydro-4H-benzo[d]pyrazolo[1,5-a][1,3]diazepine-3-carboxamide]
- pIC50 (HEK-293 cells): < 5.00
- DC50 (BTK): 9.74 nM

Structure (SMILES): COc1ccc(F)cc1C(=O)NCc1ccc(-c2nn3c(c2C(N)=O)Nc2ccc(N4CCN(CC5CCN(c6ccc(N7CCC(=O)NC7=O)cc6)CC5)CC4)cc2CC3)cc1C [Example C42, 7-(4-((1-(4-(2,4-dioxotetrahydropyrimidin-1(2H)-yl)phenyl)piperidin-4-yl)methyl)piperazin-1-yl)-2-(4-((5-fluoro-2-methoxybenzamido)methyl)-3-methylphenyl)-9,10-dihydro-4H-benzo[d]pyrazolo[1,5-a][1,3]diazepine-3-carboxamide]
- pIC50 (HEK-293 cells): < 5.00
- DC50 (BTK): 5.36 nM

Structure (SMILES): COc1c(F)c(F)c(F)c(F)c1C(=O)NCc1ccc(-c2nn3c(c2C(N)=O)Nc2ccc(N4CCN(CC5CCN(c6ccc(N7CCC(=O)NC7=O)cc6)CC5)CC4)cc2CC3)cc1C [Example C43, 7-(4-((1-(4-(2,4-dioxotetrahydropyrimidin-1(2H)-yl)phenyl)piperidin-4-yl)methyl)piperazin-1-yl)-2-(3-methyl-4-((2,3,4,5-tetrafluoro-6-methoxybenzamido)methyl)phenyl)-9,10-dihydro-4H-benzo[d]pyrazolo[1,5-a][1,3]diazepine-3-carboxamide]
- pIC50 (HEK-293 cells): 6.01
- DC50 (BTK): 29.4 nM

Structure (SMILES): COc1ccccc1C(=O)NCc1ccc(-c2nn3c(c2C(N)=O)Nc2ccc(N4CCN(CC5CCN(c6ccc(N7CCC(=O)NC7=O)cc6)CC5)CC4)cc2CC3)c(OC)c1 [Example C44, 7-(4-((1-(4-(2,4-dioxotetrahydropyrimidin-1(2H)-yl)phenyl)piperidin-4-yl)methyl)piperazin-1-yl)-2-(2-methoxy-4-((2-methoxybenzamido)methyl)phenyl)-9,10-dihydro-4H-benzo[d]pyrazolo[1,5-a][1,3]diazepine-3-carboxamide]
- pIC50 (HEK-293 cells): 6.19
- DC50 (BTK): 3.8 nM

Structure (SMILES): COc1ccccc1C(=O)NCc1ccc(-c2nn3c(c2C(N)=O)Nc2ccc(N4CCN(CC5CCN(c6ccc(N7CCC(=O)NC7=O)cc6)CC5)CC4)cc2CC3)cc1C(F)(F)F [Example C45, 7-(4-((1-(4-(2,4-dioxotetrahydropyrimidin-1(2H)-yl)phenyl)piperidin-4-yl)methyl)piperazin-1-yl)-2-(4-((2-methoxybenzamido)methyl)-3-(trifluoromethyl)phenyl)-9,10-dihydro-4H-benzo[d]pyrazolo[1,5-a][1,3]diazepine-3-carboxamide]
- pIC50 (HEK-293 cells): < 5.00
- DC50 (BTK): 56.4 nM

Structure (SMILES): COc1ccccc1C(=O)NCc1ccc(-c2nn3c(c2C(N)=O)Nc2ccc(N4CCN(CC5CCN(c6ccc(N7CCC(=O)NC7=O)cc6)CC5)CC4)cc2CC3)c(F)c1C [Example C46, 7-(4-((1-(4-(2,4-dioxotetrahydropyrimidin-1(2H)-yl)phenyl)piperidin-4-yl)methyl)piperazin-1-yl)-2-(2-fluoro-4-((2-methoxybenzamido)methyl)-3-methylphenyl)-9,10-dihydro-4H-benzo[d]pyrazolo[1,5-a][1,3]diazepine-3-carboxamide]
- pIC50 (HEK-293 cells): < 5.00
- DC50 (BTK): 4.38 nM

Structure (SMILES): COc1ccccc1C(=O)NCc1ccc(-c2nn3c(c2C(N)=O)Nc2ccc(N4CCN(CC5CCN(c6ccc(N7CCC(=O)NC7=O)cc6)CC5)CC4)cc2CC3)c(F)c1F [Example C47, 2-(2,3-difluoro-4-((2-methoxybenzamido)methyl)phenyl)-7-(4-((1-(4-(2,4-dioxotetrahydropyrimidin-1(2H)-yl)phenyl)piperidin-4-yl)methyl)piperazin-1-yl)-9,10-dihydro-4H-benzo[d]pyrazolo[1,5-a] [1,3]diazepine-3-carboxamide]
- pIC50 (HEK-293 cells): 6.65
- DC50 (BTK): 4.64 nM

Structure (SMILES): COc1ccccc1C(=O)NCc1cc(F)c(-c2nn3c(c2C(N)=O)Nc2ccc(N4CCN(CC5CCN(c6ccc(N7CCC(=O)NC7=O)cc6)CC5)CC4)cc2CC3)cc1C [Example C48, 7-(4-((1-(4-(2,4-dioxotetrahydropyrimidin-1(2H)-yl)phenyl)piperidin-4-yl)methyl)piperazin-1-yl)-2-(2-fluoro-4-((2-methoxybenzamido)methyl)-5-methylphenyl)-9,10-dihydro-4H-benzo[d]pyrazolo[1,5-a][1,3]diazepine-3-carboxamide]
- pIC50 (HEK-293 cells): < 5.00
- DC50 (BTK): 3.52 nM

Structure (SMILES): COc1c(C)cccc1C(=O)NCc1ccc(-c2nn3c(c2C(N)=O)Nc2ccc(N4CCN(CC5CCN(c6ccc(N7CCC(=O)NC7=O)cc6)CC5)CC4)cc2CC3)cc1C [Example C49, 7-(4-((1-(4-(2,4-dioxotetrahydropyrimidin-1(2H)-yl)phenyl)piperidin-4-yl)methyl)piperazin-1-yl)-2-(4-((2-methoxy-3-methylbenzamido)methyl)-3-methylphenyl)-9,10-dihydro-4H-benzo[d]pyrazolo[1,5-a][1,3]diazepine-3-carboxamide]
- pIC50 (HEK-293 cells): < 5.00
- DC50 (BTK): 9.8 nM

Reference: patent publication US20240246977A1, “DEGRADATION OF BRUTON'S TYROSINE KINASE (BTK) BY CONJUGATION OF BTK INHIBITORS WITH E3 LIGASE LIGAND AND METHOD OF USE” (BeiGene Switzerland GmbH, priority 2021, published 2024)
